system: Sphaerotheca fuliginea; test: In vivo preventive test on Sphaerotheca fuliginea (powdery mildew on cucurbits); details: gherkin plants, preventive spray, 500 ppm, grading 12 days after contamination
Description: Example: In Vivo Preventive Test on Sphaerotheca fuliginea (Powdery Mildew on Cucurbits) […] Gherkin plants (“Vert petit de Paris” variety), sown in starter cups on a 50/50 peat soil-pozzolana substrate and grown at 24° C., are treated at the Z11 cotyledon stage by spraying with the active ingredient prepared as described above. Plants, used as controls, are treated with the mixture of acetone/tween/DMSO/water not containing the active material. After 24 hours, the plants are contaminated by spraying the cotyledons with an aqueous suspension of Sphaerotheca fuliginea spores (100 000 spores per ml). The spores are collected from infected plants. […] Grading (% of efficacy) is carried out 12 days after the contamination, in comparison with the control plants. Under these conditions, good (at least 70%) or total protection is observed at a dose of 500 ppm with the following compounds: […]

Row | SMILES | Eff. % [%]
1 | CCON=Cc1ccc(-c2ccccc2NC(=O)c2c(C(F)F)nn(C)c2Cl)cc1Cl [Example 17] | 100
2 | CON=Cc1ccc(-c2ccccc2NC(=O)c2c(C(F)F)nn(C)c2Cl)c(Cl)c1 [Example 10] | 100
3 | CCON=Cc1ccc(-c2ccccc2NC(=O)c2c(C(F)F)nn(C)c2Cl)c(Cl)c1 [Example 36] | 100
4 | CCON=C(C)c1ccc(-c2ccccc2NC(=O)c2c(C(F)F)nn(C)c2F)cc1 [Example 11] | 100

system: Puccinia recondita; test: In vivo preventive test on Puccinia recondita (brown rust on wheat); details: wheat plants, preventive spray, 500 ppm, grading 12 days after contamination
Description: Example: In Vivo Preventive Test on Puccinia recondita (Brown Rust on Wheat) […] Wheat plants (“Scipion” variety), sown in starter cups on a 50/50 peat soil-pozzolana substrate and grown at 22° C., are treated at the 1-leaf stage (10 cm height) by spraying with the active ingredient prepared as described above. Plants, used as controls, are treated with the mixture of acetone/tween/DMSO/water not containing the active material. After 24 hours, the plants are contaminated by spraying the leaves with an aqueous suspension of Puccinia […] spores (100 000 spores per ml). […] Grading (% of efficacy) is carried out 12 days after the contamination, in comparison with the control plants. Under these conditions, good (at least 70%) or total protection is observed at a dose of 500 ppm with the following compounds: […]

Row | SMILES | Eff. % [%]
5 | CON=C(C)c1cccc(-c2cccc(NC(=O)c3c(C(F)F)nn(C)c3Cl)c2)c1 [Example 45] | 94
6 | CCON=C(C)c1ccc(-c2ccccc2NC(=O)c2c(C(F)F)nn(C)c2Cl)cc1 [Example 34] | 89
7 | CON=C(C)c1cccc(-c2cccc(NC(=O)c3c(C(F)F)nn(C)c3F)c2)c1 [Example 42] | 89
8 | CCON=C(C)c1ccc(-c2ccccc2NC(=O)c2c(C(F)F)nn(C)c2F)cc1 [Example 16] | 94
9 | CCON=Cc1ccc(-c2ccccc2NC(=O)c2c(C(F)F)nn(C)c2Cl)cc1Cl [Example 17] | 97
10 | CON=Cc1ccc(-c2ccccc2NC(=O)c2c(C(F)F)nn(C)c2Cl)c(Cl)c1 [Example 10] | 97
11 | CCON=Cc1ccc(-c2ccccc2NC(=O)c2c(C(F)F)nn(C)c2Cl)c(Cl)c1 [Example 36] | 97
12 | CCON=C(C)c1ccc(-c2ccccc2NC(=O)c2c(C(F)F)nn(C)c2F)cc1 [Example 11] | 94
13 | CCON=C(C)c1cccc(-c2cccc(NC(=O)c3c(C(F)F)nn(C)c3Cl)c2)c1 [Example 43] | 89
14 | CCON=C(C)c1cccc(-c2cccc(NC(=O)c3c(C(F)F)nn(C)c3F)c2)c1 [Example 44] | 94

system: Pyrenophora teres; test: In vivo preventive test on Pyrenophora teres (net blotch on barley); details: barley plants, preventive spray, 500 ppm, grading 14 days after contamination
Description: Example: In Vivo Preventive Test on Pyrenophora teres (Net Blotch on Barley) […] Barley plants (“Plaisant” variety), sown in starter cups on a 50/50 peat soil-pozzolana substrate and grown at 22° C., are treated at the 1-leaf stage (10 cm height) by spraying with the active ingredient prepared as described above. Plants, used as controls, are treated with the mixture of acetone/tween/DMSO/water not containing the active material. After 24 hours, the plants are contaminated by spraying the leaves with an aqueous suspension of Pyrenophora teres spores (12 000 spores per ml). The spores are collected from a 12-day-old culture. […] Grading (% of efficacy) is carried out 14 days after the contamination, in comparison with the control plants. Under these conditions, good (at least 70%) or total protection is observed at a dose of 500 ppm with the following compounds: […]

Row | SMILES | Eff. % [%]
15 | CON=C(C)c1cccc(-c2cccc(NC(=O)c3c(C(F)F)nn(C)c3Cl)c2)c1 [Example 45] | 80
16 | CCON=C(C)c1ccc(-c2ccccc2NC(=O)c2c(C(F)F)nn(C)c2Cl)cc1 [Example 34] | 80
17 | CON=C(C)c1cccc(-c2cccc(NC(=O)c3c(C(F)F)nn(C)c3F)c2)c1 [Example 42] | 70
18 | CCON=C(C)c1ccc(-c2ccccc2NC(=O)c2c(C(F)F)nn(C)c2F)cc1 [Example 16] | 79
19 | CCON=Cc1ccc(-c2ccccc2NC(=O)c2c(C(F)F)nn(C)c2Cl)cc1Cl [Example 17] | 96
20 | CCON=Cc1ccc(-c2ccccc2NC(=O)c2c(C(F)F)nn(C)c2Cl)c(Cl)c1 [Example 36] | 90
21 | CCON=C(C)c1ccc(-c2ccccc2NC(=O)c2c(C(F)F)nn(C)c2F)cc1 [Example 11] | 96
22 | CCON=C(C)c1cccc(-c2cccc(NC(=O)c3c(C(F)F)nn(C)c3Cl)c2)c1 [Example 43] | 80
23 | CCON=C(C)c1cccc(-c2cccc(NC(=O)c3c(C(F)F)nn(C)c3F)c2)c1 [Example 44] | 79

system: Uromyces appendiculatus; test: In vivo preventive test on Uromyces appendiculatus (bean rust); details: bean plants, preventive spray, 500 ppm, grading 11 days after contamination
Description: Example: In Vivo Preventive Test on Uromyces appendiculatus (Bean Rust) […] Bean plants (“Saxa” variety), sown in starter cups on a 50/50 peat soil-pozzolana substrate and grown at 24° C., are treated at the 2-leaf stage (9 cm height) by spraying with the active ingredient prepared as described above. Plants, used as controls, are treated with the mixture of acetone/tween/DMSO/water not containing the active material. After 24 hours, the plants are contaminated by spraying the leaves with an aqueous suspension of Uromyces appendiculatus spores (150 000 spores per ml). […] Grading (% of efficacy) is carried out 11 days after the contamination, in comparison with the control plants. Under these conditions, good (at least 70%) or total protection is observed at a dose of 500 ppm with the following compounds: […]

Row | SMILES | Eff. % [%]
24 | CON=C(C)c1cccc(-c2cccc(NC(=O)c3c(C(F)F)nn(C)c3Cl)c2)c1 [Example 45] | 100
25 | C#CCON=C(C)c1ccc(-c2cccc(NC(=O)c3c(C(F)F)nn(C)c3Cl)c2)cc1 [Example 35] | 98
26 | CCON=C(C)c1ccc(-c2ccccc2NC(=O)c2c(C(F)F)nn(C)c2Cl)cc1 [Example 34] | 100
27 | CON=C(C)c1cccc(-c2cccc(NC(=O)c3c(C(F)F)nn(C)c3F)c2)c1 [Example 42] | 97
28 | CCON=C(C)c1ccc(-c2ccccc2NC(=O)c2c(C(F)F)nn(C)c2F)cc1 [Example 16] | 100
29 | CCON=Cc1ccc(-c2ccccc2NC(=O)c2c(C(F)F)nn(C)c2Cl)cc1Cl [Example 17] | 100
30 | CON=Cc1ccc(-c2ccccc2NC(=O)c2c(C(F)F)nn(C)c2Cl)c(Cl)c1 [Example 10] | 100
31 | CCON=Cc1ccc(-c2ccccc2NC(=O)c2c(C(F)F)nn(C)c2Cl)c(Cl)c1 [Example 36] | 94
32 | CCON=C(C)c1ccc(-c2ccccc2NC(=O)c2c(C(F)F)nn(C)c2F)cc1 [Example 11] | 100
33 | CCON=C(C)c1cccc(-c2cccc(NC(=O)c3c(C(F)F)nn(C)c3Cl)c2)c1 [Example 43] | 100
34 | CCON=C(C)c1cccc(-c2cccc(NC(=O)c3c(C(F)F)nn(C)c3F)c2)c1 [Example 44] | 100

system: Alternaria brassicae; test: In vivo preventive test on Alternaria brassicae (leaf spot on radish); details: radish plants, preventive spray, 500 ppm, grading 6 days after contamination
Description: Example: In Vivo Preventive Test on Alternaria brassicae (Leaf Spot on Radish) […] Radish plants (“Pernod Clair” variety), sown in starter cups on a 50/50 peat soil-pozzolana substrate and grown at 17° C., are treated at the cotyledon stage by spraying with the active ingredient prepared as described above. Plants, used as controls, are treated with the mixture of acetone/tween/DMSO/water not containing the active material. After 24 hours, the plants are contaminated by spraying the cotyledons with an aqueous suspension of Alternaria brassicae spores (50 000 spores per ml). The spores are collected from a 15-day-old culture. […] Grading (% of efficacy) is carried out 6 days after the contamination, in comparison with the control plants. Under these conditions, good (at least 70%) or total protection is observed at a dose of 500 ppm with the following compounds: […]

Row | SMILES | Eff. % [%]
35 | CCON=C(C)c1ccc(-c2ccccc2NC(=O)c2c(C(F)F)nn(C)c2F)cc1 [Example 16] | 100
36 | CCON=Cc1ccc(-c2ccccc2NC(=O)c2c(C(F)F)nn(C)c2Cl)cc1Cl [Example 17] | 98
37 | CCON=Cc1ccc(-c2ccccc2NC(=O)c2c(C(F)F)nn(C)c2Cl)c(Cl)c1 [Example 36] | 81
38 | CCON=C(C)c1ccc(-c2ccccc2NC(=O)c2c(C(F)F)nn(C)c2F)cc1 [Example 11] | 97
39 | CCON=C(C)c1cccc(-c2cccc(NC(=O)c3c(C(F)F)nn(C)c3F)c2)c1 [Example 44] | 100

system: not listed separately; test: logP by HPLC on reversed phase columns (EEC directive 79/831 Annex V.A8); details: method [a]: LC-MS at pH 2.7, 0.1% formic acid in water / acetonitrile gradient 10% to 95%

Row | SMILES | logP
40 | CON=C(C)c1cccc(-c2cccc(NC(=O)c3c(C(F)F)nn(C)c3Cl)c2)c1 [Example 45] | 4.04[a]
41 | C#CCON=C(C)c1ccc(-c2cccc(NC(=O)c3c(C(F)F)nn(C)c3Cl)c2)cc1 [Example 35] | 4.01[a]
42 | CCON=C(C)c1ccc(-c2ccccc2NC(=O)c2c(C(F)F)nn(C)c2Cl)cc1 [Example 34] | 4.49[a]
43 | CON=C(C)c1cccc(-c2cccc(NC(=O)c3c(C(F)F)nn(C)c3F)c2)c1 [Example 42] | 3.85[a]
44 | CCON=C(C)c1ccc(-c2ccccc2NC(=O)c2c(C(F)F)nn(C)c2F)cc1 [Example 16] | 4.29[a]
45 | CCON=Cc1ccc(-c2ccccc2NC(=O)c2c(C(F)F)nn(C)c2Cl)cc1Cl [Example 17] | 4.64[a]
46 | CON=Cc1ccc(-c2ccccc2NC(=O)c2c(C(F)F)nn(C)c2Cl)c(Cl)c1 [Example 10] | 4.05[a]
47 | CCON=Cc1ccc(-c2ccccc2NC(=O)c2c(C(F)F)nn(C)c2Cl)c(Cl)c1 [Example 36] | 4.49[a]
48 | CCON=C(C)c1ccc(-c2ccccc2NC(=O)c2c(C(F)F)nn(C)c2F)cc1 [Example 11] | 4.24[a]
49 | CCON=C(C)c1cccc(-c2cccc(NC(=O)c3c(C(F)F)nn(C)c3Cl)c2)c1 [Example 43] | 4.49[a]
50 | CCON=C(C)c1cccc(-c2cccc(NC(=O)c3c(C(F)F)nn(C)c3F)c2)c1 [Example 44] | 4.29[a]

system: Botrytis cinerea; test: In vivo preventive test on Botrytis cinerea (grey mould); details: gherkin plants, preventive spray, 500 ppm, grading 4 to 5 days after contamination
Description: Example: In Vivo Preventive Test on Botrytis cinerea (Grey Mould) […] Gherkin plants (“Vert petit de Paris” variety), sown in starter cups on a 50/50 peat soil-pozzolana substrate and grown at 24° C., are treated at the Z11 cotyledon stage by spraying with the active ingredient prepared as described above. Plants, used as controls, are treated with the mixture of acetone/tween/DMSO/water not containing the active material. After 24 hours, the plants are contaminated by spraying the cotyledons with an aqueous suspension of cryopreserved Botrytis cinerea spores (50 000 spores per ml). The spores are suspended in a nutrient solution composed of 10 g/L of PDB, 50 g/L of D-Fructose, 2 g/L of NH4NO3 and 1 g/L of KH2PO4. […] Grading (% of efficacy) is carried out 4 to 5 days after the contamination, in comparison with the control plants. Under these conditions, good (at least 70%) or total protection is observed at a dose of 500 ppm with the following compounds: […]

Row | SMILES | Eff. % [%]
51 | CCON=C(C)c1ccc(-c2ccccc2NC(=O)c2c(C(F)F)nn(C)c2F)cc1 [Example 16] | 80
52 | CCON=Cc1ccc(-c2ccccc2NC(=O)c2c(C(F)F)nn(C)c2Cl)c(Cl)c1 [Example 36] | 95
53 | CCON=C(C)c1cccc(-c2cccc(NC(=O)c3c(C(F)F)nn(C)c3F)c2)c1 [Example 44] | 80

system: Septoria tritici; test: In vivo preventive test on Septoria tritici (leaf spot on wheat); details: wheat plants, preventive spray, 500 ppm, grading 24 days after contamination
Description: Example: In Vivo Preventive Test on Septoria tritici (Leaf Spot on Wheat) […] Wheat plants (“Scipion” variety), sown in starter cups on a 50/50 peat soil-pozzolana substrate and grown at 22° C., are treated at the 1-leaf stage (10 cm height) by spraying with the active ingredient prepared as described above. Plants, used as controls, are treated with the mixture of acetone/tween/DMSO/water not containing the active material. After 24 hours, the plants are contaminated by spraying the leaves with an aqueous suspension of cryopreserved Septoria tritici spores (500 000 spores per ml). […] Grading (% of efficacy) is carried out 24 days after the contamination, in comparison with the control plants. Under these conditions, good (at least 70%) or total protection is observed at a dose of 500 ppm with the following compounds: […]

Row | SMILES | Eff. % [%]
54 | C#CCON=C(C)c1ccc(-c2cccc(NC(=O)c3c(C(F)F)nn(C)c3Cl)c2)cc1 [Example 35] | 75

— US9765034B2, “5-halogenopyrazole biphenylcarboxamides” (BAYER CROPSCIENCE AG, priority 2012, dated 2017)
